Source: patent US20060211606A1, “Peptides” (priority 2005, published 2006)
*1 amine or outer side, *2 acyl side, *3 side chain or, on linkers, in order; H or OH if unused. [ ]: non-standard residue; d: D form. PEG (Jeffamine) = not defined here; Suc = O=C(CCC(=O)[*:2])[*:1]

How the values were obtained:
CA1 hippocampal neurones = test: Gerbil model of brain ischemia, intact CA1 hippocampal neurones; type: in vivo, Mongolian gerbils; details: 25 μg injection, 7 days after the insult
Method: Other experiments were carried out using a Gerbil model of brain ischemia.
In the gerbil brain, bilateral ligation of the common carotid arteries invariably produces specific hippocampal lesions: in the CA1 region, pyramidal neurones start to die 3-4 days after ischemia.
Male Mongolian gerbils weighing 50-60 g were used. The ischemic insult was performed by 5 min. ligation of the common carotid arteries under halotane in N2O:O2 (70:30) anaesthesia in strictly controlled normothermic conditions as previously described (Domańiska-Janik et al., 2004). The cerebral blood flow was continuously monitored by laser Doppler flowmetry (Muro, Inc.). […] Sham operated animals were injected with the same dose of the peptide.
The animals were allowed a recovery period of one week, then were perfused with ice-cold 4% paraformaldehyde in PBS under pentobarbital anaesthesia. The histological evaluation was performed on paraffin-embedded and fixed, 10 mm-thick sections stained by hematoxylline/eosine. The extent of cell damage in the CA1 hippocampal region was quantified, under a Zeiss Axioscop 2, as the mean number of the persisted, intact neurons in the coronal sections. At least three defined 300 μm fields of the CA1 region were captured using a MC 10095 camera (Carl Zeiss Jena GmbH) and counted in a computer-assisted image analysis system (KS 300, Carl Zeiss Jena GmbH).

C2C12 muscle cells = test: C2C12 proliferation, Alamar Blue assay; type: cell-based, mouse; details: 2000 cells per well; 2, 5, 50 and 100 ng/ml; medium with IGF-I 2 ng per ml; 36 hours
Method: (A) DMGF and CMGF Peptides: C2C12 Cells were provided at 2000 cell/well, in a medium containing DMEM (1000 mg/L glucose), plus BSA(100 ug/ml), plus IGF-I (2 ng per ml) and incubated for 36 hours. Cell proliferation was then assessed using an Alamar Blue assay. […] Y-axis values are fluorescence (wavelength of excitation 535 nm, measurement at 590 nm; mean plus standard error) in an Alamar Blue assay.
The 8 amino acid peptides described in 1.3.1 above and referred to in FIG. 8A as DMGF and CMGF were tested for the ability to induce proliferation of C2C12 muscle cells at a density of 2000 cells per well in a medium containing DMEM (1000 mg/L glucose), BSA (10 ug/ml) and IGF-I (2 ng per ml). Concentrations of 2, 5, 50 and 100 ng/ml of DMGF and CMGF were tested (See the left-hand and middle sets of results in FIG. 8), along with 2, 5, 50 and 100 ng/ml IGF-I alone (See the right-hand set of results in FIG. 8). After 36 hours incubation, an Alamar Blue assay was used to assess the level of cell proliferation achieved. A control containing only the medium was also provided.

[1] = system: Human Skeletal Muscle Myoblasts (HSMM); test: HSMM proliferation, BrdU incorporation; type: cell-based; details: 48 hours; A5 significant (P<0.1) at doses of 10 ng/ml and below; IGF-I alone 0.1, 10 and 100 ng/ml
Method: (A) Peptide A5: HSMM cells at 500 cells/well. Cultivation was carried out for 24 hours in 10% FCS, followed by two washes in serum free medium, stimulation for 48 hours and then treatment with BrdU for 5 hours. Concentrations of 0.1, 1, 10, 100 and 500 ng/ml of peptide A5 were tested, along with 0.1, 1, 10 and 100 ng/ml IGF-I. BrdU incorporation was measured to assess the level of cell proliferation achieved. Controls containing medium only, no cells (BLK), background staining (BG) and 10% FBS were also provided. Values on the Y-axis are for fluorescence (absorbence at 370 nm; mean plus standard error across 4 wells). The first five columns relate to peptide A5 at concentrations of 0.1, 1, 10, 100 and 500 ng/ml. The next column relates to the control containing medium only. The next three relate to IGF-I (See Example 1.5) alone at concentrations of 100, 10 and 0.1 ng/ml. The next three relate to controls containing 10% FBS, background staining and no cells respectively. * means P<0.05 compared to medium only control.
(§1) (B) Peptide AS: HSMM cells at 500 cells/well. […] Concentrations of 0.1, 1, 10, 100 and 500 ng/ml of peptide AS in combination with 2 ng/ml IGF-I were tested, along with 0.1, 1, 10 and 100 ng/ml IGF-I. BrdU incorporation was measured to assess the level of cell proliferation achieved. […] Values on the Y-axis are for fluorescence (absorbence at 370 nm; mean plus standard error across 4 wells). […]
as §1, with “(A)” for “(B)”, “AS” for “AS in combination with 2 ng/ml IGF-I”
(B) Peptide A5: HSMM cells at 500 cells/well. […] Concentrations of 0.1, 1, 10, 100 and 500 ng/ml of peptide AS in combination with 2 ng/ml IGF-I were tested, along with 0.1, 1, 10 and 100 ng/ml IGF-I. BrdU incorporation was measured to assess the level of cell proliferation achieved. […]

infarcted murine heart = test: Murine myocardial infarction (LAD ligation), pressure/volume loops; type: in vivo, mice; details: murine MI by LAD ligation; systemic administration
Method: All panels show pressure (mmHg) on the Y-axis and Relative Volume Units on the X-axis.
Additional experiments were carried out on mice. In these studies the MI was produced by ligating the left anterior descending (LAD) coronary artery of the murine heart. This causes dilation of the left ventricle, the progression of which leads to heart failure. […] Therefore there is considerable potential for treatment of patients immediately following a heart attack.

[2] = Stability to proteolytic cleavage in fresh human plasma, Western blotting; details: fresh human plasma plus PBS, 37° C., 24 hours
Method: Western blotting was then used to assess the survival of each peptide over those time intervals: A=0 minutes; B=30 minutes; C=2 hours; D=24 hours.
Stability may be assessed in terms of half-life in human plasma or by any other suitable technique. In particular, stability can be measured by assessing peptides' susceptibility to proteolytic cleavage in fresh human plasma according to the technique of Example 5.1 below, in which the plasma was stored until used at −70° C., 10 μg of peptide was added to 2 ml of plasma, plus 7 ml of PBS and the mixture was incubated at 37° C. for different time intervals. Western blotting was then used to detect each peptide over those time intervals.
The plasma was stored until used at −70° C. 10 μg of peptide were added to 2 ml of plasma, plus 7 ml of PBS. This mixture was incubated at 37° C. for different time intervals.
Like biological activity, stability was scored on a scale of 0 to 3.
Stability was determined as the amount of the peptide that remained intact and bound to the specific antibody in the following way:

Row | Substance | CA1 neurones as % of the control neuronal cell number (side not stated) (CA1 hippocampal neurones) | number of CA1 neurones left (side not stated) (CA1 hippocampal neurones) | proliferation of C2C12 cells (Alamar Blue fluorescence) (C2C12 muscle cells) | proliferation of HSMM (BrdU incorporation), used in isolation [1] | strength and function of the heart by pressure/volume loops (infarcted murine heart) | peptide detected by Western blotting after 24 hours [2]
1 | IGF-I: IGF-I receptor binding domain encoded by Exons 3 and 4, common to all splice variants, approximately 70 amino acids [reference compound] | 15.8% | 19.2±7.3 neurones | statistically different to the control value | no significant effect | – | –
2 | stabilised peptide: SEQ ID NO: 15 with D-Arginine at positions 14 and 15, N-terminus attached to PEG (Jeffamine) via succinic acid bridge, amidated at C-terminus ({PEG (Jeffamine)-Suc}-YQPPSTNKNTKSQ[dR][dR]KGSTFEEHK-NH2; reading uncertain) | – | – | – | – | markedly improved the strength and function of the heart | detected in abundance
